{"source": "patent US12582649B2", "about": "“Compositions and methods for hair follicle regeneration” (Washington University, priority 2020, dated 2026)", "key": {"hair follicles [1]": {"tested_on": "hair follicles", "test": "Hair follicle regeneration / new hair growth after a single intradermal injection in telogen back skin", "type": "in vivo, mice", "procedure": "(§1) The second telogen of C57BL/6J mice starts at day 49 after birth and it will last around 5 weeks (Muller-Rover et al., 2001). On day 48 after birth, the mice were shaved. On day 49 after birth, wt and Trpv4^−/− mice were intradermally injected with 30-μM GSK1016790A (GSK101, a selective TRPV4 agonist) (50 μl), which is diluted in saline from the 100 mM stock solution. GSK2193874 (GSK219, a selective TRPV4 antagonist) (25 mg·kg^−1, 200 μl dilution in saline from 50 mg·ml^−1 stock solution) (Thorneloe et al., 2012) or PD98059 (10 mg·kg^−1, 200 μl dilution in saline from 37.5 mg·ml^−1 stock solution) was applied through intraperitoneal injection on day 48 after birth or 1 hour prior to GSK1016790A injection. Insulin syringes with 30-G needle (UltiCare) were used for intradermal injection and 1-ml Sub-Q syringes with 26-G needle (BD) were used for intraperitoneal injection. Seventeen days after GSK1016790A injection, the mice were killed and the skin samples of the injection area were collected for analysis. In mice with newly generated hair, generally, there was a small patch of skin with dark color and longer hair shaft at the injection sites compared with that in the surrounding area.\nDorsal skin samples were fixed overnight at 4° C. in Zamboni's fixative (2% paraformaldehyde, 15% [v/v] saturated picric acid, 0.1-M PB, pH 7.3), dehydrated in ethanol, embedded in paraffin and sectioned at 10 μm. Haematoxylin and eosin (H&E) staining was performed according to standard protocols to analyze the hair follicle cycle stages as described, including the length of the hair follicle, the size, and location of dermal papilla and the position of the hair shaft and the inner root sheath (Muller-Rover et al., 2001). For immunofluorescence detection, sections were deparaffinized, rehydrated, and subjected to antigen retrieval in 10-mM citrate buffer (pH 6.0). After blocking, sections were stained with primary antibody against Ki67 (1:1,000; Thermo Fisher Scientific, Cat #PA1-29503, RRID: AB_1955602), phosphop-p44/42 MAPK (1:200; Cell Signaling Technology, Cat #4370S, RRID: AB_2315112), p44/42 MAPK (1:1,000; Cell Signaling Technology, Cat #4695, RRID: AB_390779), keratin 14 (1:1,000; BioLegend, […], RRID: AB_2616962) and keratin 15 (1:1,000; BioLegend, Cat #833901, RRID: AB_2564970) at 4° C. overnight in a humid chamber, followed by incubation for 1 h at room temperature (RT) with Cy3-conjugated secondary antibody (1:500; Jackson ImmunoResearch, Cat #111-005-003, RRID: AB_2337913) and Alexa Fluor 488-conjugated secondary antibody (1:500; Jackson ImmunoResearch, Cat #703-005-155, RRID: AB_2340346). Nuclei were stained with DAPI (SouthernBiotech). The Immuno-related procedures used comply with the recommendations made by the British Journal of Pharmacology Alexander et al., 2018."}, "[2]": {"tested_on": "hair follicle keratinocytes", "test": "Ki67 immunofluorescence staining of back skin sections (proliferation of hair follicle keratinocytes and stem cells)", "type": "in vivo", "settings": "Trpv4+/+ mice, 48 h after single intradermal injection, vs vehicle", "procedure": "as §1, with “Seventeen days after GSK1016790A injection, the mice were killed and the skin samples of the injection area were collected for analysis.” left out\nDorsal skin samples were fixed overnight at 4° C. in Zamboni's fixative (2% paraformaldehyde, 15% [v/v] saturated picric acid, 0.1-M PB, pH 7.3), dehydrated in ethanol, embedded in paraffin and sectioned at 10 μm. […]"}, "[3]": {"tested_on": "Bmp6, Fgf18, Fgf7, Wnt16 and Nog mRNA", "test": "Quantitative RT-PCR of whole skin lysates for anagen-inhibiting and anagen-promoting factors", "type": "in vivo, mice", "procedure": "as §1\nFor real-time PCR, skin sample was collected 24 h after GSK1016790A injection. Total RNA was extracted from mouse skin tissue using RNeasy kit (Qiagen, Germantown, MD, […]) according to the manufacturer's instructions. RNA was treated with DNase I (Invitrogen, Carlsbad, CA, USA), and the cDNA was synthesized in vitro using ThermoScript® RT-PCR System kit (Invitrogen). Reactions were carried out in a volume of 20 μl per reaction containing 10-μl SYBR Green master mix (2×) (Roche, Indianapolis, IN, USA), 0.5-μl cDNA, 1.2-μl 5-μM primer mix, and 8.3-μl water using StepOnePlus real-time PCR system (Applied Biosystems, Foster City, CA, USA). Relative expression of genes was normalized to GAPDH and calculated using the 2^−ΔΔct methods."}, "ERK1/2": {"tested_on": "ERK1/2", "test": "ERK1/2 phosphorylation in skin (western blot, immunofluorescence)", "type": "in vivo, mice", "settings": "for effect of pretreatment on GSK1016790A-induced ERK1/2 phosphorylation: intraperitoneal pretreatment one hour before GSK1016790A, skin harvested 15 min after", "procedure": "as §1, with “Seventeen days after GSK1016790A injection, the mice were killed and the skin samples of the injection area were collected for analysis.” left out\n(§2) Dorsal skin samples were fixed overnight at 4° C. in Zamboni's fixative (2% paraformaldehyde, 15% [v/v] saturated picric acid, 0.1-M PB, pH 7.3), dehydrated in ethanol, embedded in paraffin and sectioned at 10 μm. Haematoxylin and eosin (H&E) staining was performed according to standard protocols to analyze the hair follicle cycle stages as described, including the length of the hair follicle, the size, and location of dermal papilla and the position of the hair shaft and the inner root sheath (Muller-Rover et al., 2001). For immunofluorescence detection, sections were deparaffinized, rehydrated, and subjected to antigen retrieval in 10-mM citrate buffer (pH 6.0). […]\nThe skin was lysed in RIPA lysis and extraction buffer (Thermo Fisher Scientific, USA). Following cell protein quantitation, 10 μg of protein per sample were subjected to 12% SDS-PAGE. […]"}, "hair follicles [4]": {"tested_on": "hair follicles", "test": "Topical application on tape-stripped shaved back skin, hair growth", "type": "in vivo, mice", "text": "FIG. 10. […] Images were taken on day 12 after GSK101 treatment.\nA TRPV4-dependent increase in hair growth was observed (FIG. 10).\nTape stripping was used to remove the stratum corneum to facilitate GSK101 entry into the skin. The agent can be applied with no additional agent or skin treatment method. The effect was removed by genetic ablation of the TRPV4 function."}, "[5]": {"tested_on": "cultured human hair follicles", "settings": "cultured human hair follicles ex vivo; cited from earlier work"}, "[6]": {"tested_on": "human epidermal keratinocytes HaCaT cells", "settings": "cited from earlier work"}, "TRPV4": {"molecular_target": "T1, TRPV4 (Mus musculus, UniProt Q9EPK8)", "T1 construct": "back skin sections from Trpv4^+/+ mice, Trpv4^+/+ mice treated with GSK219 and Trpv4^−/− mice; from tissue; host or cells: back skin of living wild-type C57BL/6J (Trpv4+/+) mice", "T1 sequence (Q9EPK8 whole entry)": "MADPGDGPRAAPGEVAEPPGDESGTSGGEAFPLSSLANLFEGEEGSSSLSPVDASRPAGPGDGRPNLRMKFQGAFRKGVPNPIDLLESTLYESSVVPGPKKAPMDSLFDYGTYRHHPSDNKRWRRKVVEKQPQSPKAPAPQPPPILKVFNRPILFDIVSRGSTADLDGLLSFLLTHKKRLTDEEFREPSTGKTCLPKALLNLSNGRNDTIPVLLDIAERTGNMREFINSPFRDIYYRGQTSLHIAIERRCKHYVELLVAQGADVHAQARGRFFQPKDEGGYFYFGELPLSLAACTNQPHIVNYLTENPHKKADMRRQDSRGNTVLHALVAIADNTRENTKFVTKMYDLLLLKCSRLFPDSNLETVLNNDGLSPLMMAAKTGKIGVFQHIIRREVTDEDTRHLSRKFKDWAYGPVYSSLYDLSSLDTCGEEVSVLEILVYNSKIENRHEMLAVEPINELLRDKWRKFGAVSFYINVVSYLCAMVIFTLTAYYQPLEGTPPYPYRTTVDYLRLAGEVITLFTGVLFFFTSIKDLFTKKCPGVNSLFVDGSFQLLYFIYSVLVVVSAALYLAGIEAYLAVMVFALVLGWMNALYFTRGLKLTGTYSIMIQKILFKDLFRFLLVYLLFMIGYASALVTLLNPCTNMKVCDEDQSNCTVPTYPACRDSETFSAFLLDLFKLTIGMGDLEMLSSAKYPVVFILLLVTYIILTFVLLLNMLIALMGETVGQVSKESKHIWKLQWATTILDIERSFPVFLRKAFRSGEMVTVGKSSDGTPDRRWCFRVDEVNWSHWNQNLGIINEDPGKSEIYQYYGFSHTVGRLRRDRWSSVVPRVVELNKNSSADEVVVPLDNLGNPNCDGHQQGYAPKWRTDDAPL", "test": "Normal hair follicle cycling under pharmacological inhibition of TRPV4 (H&E of back skin)", "type": "in vivo", "settings": "Trpv4+/+ mice treated with GSK219", "procedure": "FIG. 6. Top: hair growth cycle in mice. Bottom: representative images of hematoxylin and eosin (H&E) staining of back skin sections from Trpv4^+/+ mice, Trpv4^+/+ mice treated with GSK219 and Trpv4^−/− mice on Day 15, 21, 36, 40, 49. Scale bar=100 μm.\nas §2"}, "[7]": {"settings": "Cre+ K14Cre, Trpv4f/f mice vs wt"}, "[8]": {"settings": "Cre+ K14Cre, Trpv4f/f mice, after injection"}, "[9]": {"settings": "Trpv4+/+ mice, whole skin, 24 h after injection"}}, "note": "“Also recorded” adds a separate entry of the source."}
{"smiles": "CC(C)C[C@H](NC(=O)c1cc2ccccc2s1)C(=O)N1CCN(C(=O)[C@H](CO)NS(=O)(=O)c2ccc(Cl)cc2Cl)CC1", "note": "[GSK1016790A, N-((1S)-1-{[4-((2S)-2-{[(2,4-dichlorophenyl)sulfonyl]amino}-3-hydroxypropanoyl)-1-piperazinyl]carbonyl}-3-methylbutyl)-1-benzothiophene-2-carboxamide]", "values": [{"measurement": "new hair growth (newly generated hair coat) at the injection site", "setting": "hair follicles [1]; 7-week-old wt (Trpv4+/+) mice, single intradermal injection (30 μM, 50 μl), 17 days after injection, vs vehicle", "result": "newly generated hair coat could be clearly observed at the injection site in a dose-dependent manner; also recorded: persistently induced hair growth"}, {"measurement": "hair regeneration in macrophage-specific TRPV4 conditional KO mice", "setting": "hair follicles [1]; Cx3cr1Cre, Trpv4f/f mice vs Cre− wt littermates, single intradermal injection", "result": "comparable hair regeneration"}, {"measurement": "hair regeneration in keratinocyte-specific TRPV4 conditional KO mice", "setting": "hair follicles [1]; K14Cre, Trpv4f/f mice, single intradermal injection", "result": "completely absent"}, {"measurement": "GSK1016790A-induced hair regeneration in global TRPV4 KO mice", "setting": "hair follicles [1]; Trpv4−/− mice, single intradermal injection", "result": "completely absent"}, {"measurement": "hair follicle elongation (hair follicle length)", "setting": "hair follicles [1]; wt mice, single intradermal injection, H&E of back skin, vs vehicle", "result": "more than fourfold"}, {"measurement": "hair cycle stage of hair follicles", "setting": "hair follicles [1]; wt mice, single intradermal injection, vehicle: telogen or anagen I", "result": "most of the hair follicles had entered anagen Ill-VI phases"}, {"measurement": "number of Ki67-positive K14-expressing hair follicle keratinocytes", "setting": "[2]", "result": "significantly increased; also recorded: increase"}, {"measurement": "number of Ki67-positive K15-expressing hair follicle stem cells in the bulge", "setting": "[2]", "result": "increased number; also recorded: increase"}, {"measurement": "Bmp6 mRNA expression level", "setting": "[3]; Cre+ K14Cre, Trpv4f/f mice", "result": "did not affect"}, {"measurement": "Fgf18 mRNA expression level", "setting": "[3]; Cre+ K14Cre, Trpv4f/f mice", "result": "did not affect"}, {"measurement": "Fgf7 expression compared with wt mice injected with GSK1016790A", "setting": "[3]; [7]", "result": "significantly decreased"}, {"measurement": "Nog expression compared with wt mice injected with GSK1016790A", "setting": "[3]; [7]", "result": "significantly decreased"}, {"measurement": "Wnt16 expression compared with wt mice injected with GSK1016790A", "setting": "[3]; [7]", "result": "significantly decreased"}, {"measurement": "Fgf7 expression", "setting": "[3]; [8]", "result": "still increased"}, {"measurement": "Nog expression", "setting": "[3]; [8]", "result": "still increased"}, {"measurement": "Wnt16 expression", "setting": "[3]; [8]", "result": "still increased"}, {"measurement": "Bmp6 mRNA transcripts", "setting": "[3]; [9]", "result": "significant decrease"}, {"measurement": "Fgf7 mRNA transcripts", "setting": "[3]; [9]", "result": "markedly increased"}, {"measurement": "Fgf18 mRNA transcripts", "setting": "[3]; [9]", "result": "significant decrease"}, {"measurement": "Nog mRNA transcripts", "setting": "[3]; [9]", "result": "markedly increased"}, {"measurement": "Wnt16 mRNA transcripts", "setting": "[3]; [9]", "result": "markedly increased"}, {"measurement": "GSK1016790A-induced changes in Bmp6, Fgf18, Fgf7, Wnt16 and Nog expression under genetic ablation of TRPV4", "setting": "[3]; Trpv4−/− mice, 30 μM intradermal, 24 h", "result": "significantly attenuated"}, {"measurement": "ERK1/2 phosphorylation", "setting": "ERK1/2; 15 min after a single intradermal injection, skin at injection site", "result": "significantly increased"}, {"measurement": "hair growth after topical application", "setting": "hair follicles [4]; 100 μM applied once, tape stripping of shaved back, day 12, vs vehicle", "result": "facilitate hair growth; also recorded: increased hair growth"}, {"measurement": "hair growth effect of topical application under genetic ablation of TRPV4 function", "setting": "hair follicles [4]; TRPV4 ablated mice, tape stripping", "result": "removed"}, {"measurement": "number of apoptotic cells", "setting": "[5]", "result": "increased"}, {"measurement": "ratio of proliferating cells", "setting": "[5]", "result": "decreased"}, {"measurement": "membrane currents", "setting": "[6]; HaCaT cells (PMID: 29293584)", "result": "activated membrane currents"}, {"measurement": "IL-6 production", "setting": "[6]; HaCaT cells (PMID: 30022772)", "result": "induced"}, {"measurement": "IL-8 production", "setting": "[6]; HaCaT cells (PMID: 30022772)", "result": "induced"}]}
{"smiles": "COc1cccc(-c2cc(=O)c3ccccc3o2)c1N", "note": "[PD98059]", "values": [{"measurement": "hair growth after GSK1016790A injection in pretreated mice", "setting": "hair follicles [1]; PD98059 10 mg·kg−1 intraperitoneal pretreatment, 17 days after GSK1016790A injection", "result": "completely absent"}, {"measurement": "effect of pretreatment on GSK1016790A-induced decrease of Bmp6 and Fgf18 and increase of Fgf7, Wnt16 and Nog expression", "setting": "[3]; PD98059 pretreatment vs vehicle control", "result": "completely reversed"}, {"measurement": "effect of pretreatment on GSK1016790A-induced ERK1/2 phosphorylation", "setting": "ERK1/2", "result": "severely attenuated"}]}
{"smiles": "O=C(NC1(c2ccccc2)CC1)c1c(CN2CCC(N3CCCCC3)CC2)c(-c2cccc(C(F)(F)F)c2)nc2cc(Br)ccc12", "note": "[GSK2193874]", "values": [{"measurement": "effect of pretreatment on GSK1016790A-induced hair regeneration", "setting": "hair follicles [1]; GSK2193874 25 mg·kg−1 intraperitoneal pretreatment, wt mice", "result": "completely abolished"}, {"measurement": "effect of pretreatment on GSK1016790A-induced changes in Bmp6, Fgf18, Fgf7, Wnt16 and Nog expression", "setting": "[3]; GSK2193874 pretreatment, Trpv4+/+ mice", "result": "significantly attenuated"}, {"measurement": "effect of pretreatment on GSK1016790A-induced ERK1/2 phosphorylation", "setting": "ERK1/2", "result": "severely attenuated"}, {"measurement": "normal transition of first telogen to second anagen", "setting": "TRPV4", "result": "no effect"}]}
